SMILES strings stand for the structures.

The experiment deals with RLS patient. Put plainly: Treatment of one RLS patient with thalidomide; RLS severity and sleep disturbance observed weekly with four questionnaires. Format: in vivo, human. The following applies: for IRLSSG severity: 100 mg thalidomide daily plus two tablets pramipexole 0.18 mg, scale 0 to 40; for ESS sleepiness: Epworth Sleepiness Scale 0 to 24; for MOS sleep disturbance: range 0-100%; for RLS-6 score: scale 0 to 10. Here is the method:
The patient had been diagnosed with RLS but had suffered from the disease since childhood. They had family history of RLS with their parent and two siblings being affected.
The patient was washed off the concurrent medication, with the exception of two tablets of 0.18 mg pramipexole, which was maintained throughout the study.
After the baseline period, they were prescribed 100 mg of the inhibitor of the cereblon (CRBN) thalidomide (i.e. 2-(2,6-dioxopiperidin-3-yl)-2,3-dihydro-1H-isoindole-1,3-dione) daily, which they continued taking for three weeks in addition to their two tables pramipexol 0,18 mg treatment.
Throughout the six-week period, the RLS severity and sleep disturbance of the patient were weekly observed with four different questionnaires: • 1. IRLSSG severity scale: This is the gold standard questionnaire to evaluate RLS severity both in clinical practice and in pharmaceutical studies. The scale is based on 10 questions answered by the patient, and final severity score ranges from 0 to 40. On the IRLSSG scale, 0 points corresponds to no RLS, 1-10 points corresponds to mild RLS, 11-20 points corresponds to moderate RLS, 21-30 points corresponds to severe RLS and 31-40 points corresponds to very severe RLS. • 2. RLS-6 scale. This is an alternative scale used to evaluate different aspects of RLS. The average score may be used to evaluate the overall severity of RLS. The scale ranges from 0 to 10, with 0 indicating no RLS and 10 being the most severe RLS severity score. • 3. Epworth Sleepiness Scale (ESS). This is a gold standard questionnaire used to evaluate daytime sleepiness in clinical practice and in pharmaceutical studies. The scale ranges from 0 to 24, where 0-5 corresponds to normal daytime sleepiness, 6-10 corresponds to higher normal daytime sleepiness, 11-12 corresponds to mild excessive daytime sleepiness, 13-15 corresponds to moderate excessive daytime sleepiness and 16-24 corresponds to severe daytime sleepiness. • 4. MOS Sleep Scale. This is a questionnaire used to evaluate sleep disturbance, sleep efficiency, sleep adequacy and other related parameters with different subscores derived from the answers. In this study, the sleep disturbance score was used. The range is 0-100%, 100% indicating the most severe sleep disturbance.

Setting [1] is: week 4, 100 mg thalidomide daily plus pramipexole.
The mark [2] stands for this setting: week 5, 100 mg thalidomide daily plus pramipexole.
[3] abbreviates: week 6, 100 mg thalidomide daily plus pramipexole.

As to `O=C1CCC(N2C(=O)c3ccccc3C2=O)C(=O)N1` (stereo not shown) [Thalidomide, 2-(2,6-dioxopiperidin-3-yl)-2,3-dihydro-1H-isoindole-1,3-dione], the IRLSSG severity runs as follows: (week 4 (first treatment week)) 21 points; (week 5 (second treatment week)) 20 points; (week 6 (third treatment week)) 16 points. In addition, the ESS sleepiness is, setting by setting: under setting [1], 4; under setting [2], 7; under setting [3], 3. The MOS sleep disturbance is, setting by setting: under setting [1], 31.3%; under setting [2], 46.3%; under setting [3], 43.8%. Besides, the RLS-6 score under setting [1] worked out at 4.7, the RLS-6 score under setting [2] amounted to 2.7 and the RLS-6 score under setting [3] is 2. The “treatment success of RLS on all four measured scores” value (weeks 4-6, 100 mg thalidomide daily plus pramipexole, compared with baseline weeks 1-3) was “significantly benefitted”.

Source of the values: patent EP3421037A1, “RLS TREATMENT WITH INHIBITORS OF THE CEREBLON (CRBN) PROTEIN” (Klinikum rechts der Isar der Technischen Universität München, priority 2017, dated 2019).
